Test results: article PMC5613698 (Biochemistry and Biophysics Reports, 2016)
Structures can show the parent of a compound that is named as a salt.

Tested on: trypsin from L. alexandri pyloric cecum (Pacamã trypsin)
Assay: p-nitroaniline release at […] nm, Lineweaver-Burk
Type: biochemical, Lophiosilurus alexandri
Conditions: optimum pH (9.0) and temperature (50 °C), 90 min, BAPNA 0-6.0 mM

`N=C(N)NCCCC(NC(=O)c1ccccc1)C(=O)Nc1ccc([N+](=O)[O-])cc1` (racemic) [BAPNA, Nα-Benzoyl-D,L-arginine 4-nitroanilide hydrochloride] was tested, and the Km was 517 µM.
